Source: ChEMBL document CHEMBL1153906 (Bioorg Med Chem, 2009)

Legend:
[1] = Selectivity ratio of Ki for human carbonic anhydrase 2 to Ki for Caenorhabditis elegans carbonic anhydrase 4b
[2] = Inhibition of Caenorhabditis elegans carbonic anhydrase 4b by CO2 hydration assay

In the case of NNC(=O)c1[nH]c2ccc(S(N)(=O)=O)cc2c1-c1c(F)c(F)c(F)c(F)c1F, the Ratio Ki [1] is reported as 0.02 and the Ki [2] is reported as 260 nM.

For NNC(=O)c1[nH]c2ccc(S(N)(=O)=O)cc2c1-c1ccc(Cl)cc1, the Ratio Ki [1] was 1.78 and the Ki [2] was 6.5 nM.

Work on NNC(=O)c1[nH]c2ccc(S(N)(=O)=O)cc2c1-c1ccc(F)cc1 yielded a Ratio Ki [1] of 2.58 and a Ki [2] of 6 nM.

Work on Cc1ccc(-c2c(C(=O)NN)[nH]c3ccc(S(N)(=O)=O)cc23)cc1 yielded a Ratio Ki [1] of 4.95 and a Ki [2] of 12.2 nM.

For NNC(=O)c1[nH]c2ccc(S(N)(=O)=O)cc2c1-c1cccc(F)c1, the Ratio Ki [1] was 0.86 and the Ki [2] was 9.9 nM.

NNC(=O)c1[nH]c2ccc(S(N)(=O)=O)cc2c1-c1cccc(Br)c1 gave a Ratio Ki [1] of 4.03 and a Ki [2] of 13.4 nM.

Work on NNC(=O)c1[nH]c2ccc(S(N)(=O)=O)cc2c1-c1ccccc1F yielded a Ratio Ki [1] of 2.88 and a Ki [2] of 12.5 nM.

For Cc1cccc(-c2c(C(=O)NN)[nH]c3ccc(S(N)(=O)=O)cc23)c1, the Ratio Ki [1] was 3.63 and the Ki [2] was 13.3 nM.

With NNC(=O)c1[nH]c2ccc(S(N)(=O)=O)cc2c1-c1ccccc1Cl the Ratio Ki [1] was 0.1 and the Ki [2] was 372 nM.

In the case of NNC(=O)c1[nH]c2ccc(S(N)(=O)=O)cc2c1-c1ccccc1Br, the Ratio Ki [1] is reported as 0.18 and the Ki [2] is reported as 260 nM.

In the case of Cc1ccccc1-c1c(C(=O)NN)[nH]c2ccc(S(N)(=O)=O)cc12, the Ratio Ki [1] is reported as 0.03 and the Ki [2] is reported as 326 nM.

In the case of NNC(=O)c1[nH]c2ccc(S(N)(=O)=O)cc2c1-c1cccc(Cl)c1, the Ratio Ki [1] is reported as 0.91 and the Ki [2] is reported as 10.1 nM.

Work on NNC(=O)c1[nH]c2ccc(S(N)(=O)=O)cc2c1-c1ccc(Br)cc1 yielded a Ratio Ki [1] of 3.54 and a Ki [2] of 11.5 nM.

Work on COc1cccc(-c2c(C(=O)NN)[nH]c3ccc(S(N)(=O)=O)cc23)c1 yielded a Ratio Ki [1] of 0.02 and a Ki [2] of 330 nM.
